Measurements from article PMC5543288, “Psychostimulant Effect of the Synthetic Cannabinoid JWH-018 and AKB48: Behavioral, Neurochemical, and Dopamine Transporter Scan Imaging Studies in Mice” (Frontiers in Psychiatry, 2017).
Where a name gives a salt, the structure may show the parent alone. Read-outs that look alike come from different tables or passages of the source.

Tests used:
human DAT = target: T1, human DAT (Homo sapiens, UniProt Q01959); assay: [3H]-WIN 35,428 competition binding, CHO membranes transfected with human DAT
T1 construct: purchased Perkin Elmer; host or cells: CHO cells transfected with human DAT (membrane preparation)
T1 sequence (Q01959 whole entry): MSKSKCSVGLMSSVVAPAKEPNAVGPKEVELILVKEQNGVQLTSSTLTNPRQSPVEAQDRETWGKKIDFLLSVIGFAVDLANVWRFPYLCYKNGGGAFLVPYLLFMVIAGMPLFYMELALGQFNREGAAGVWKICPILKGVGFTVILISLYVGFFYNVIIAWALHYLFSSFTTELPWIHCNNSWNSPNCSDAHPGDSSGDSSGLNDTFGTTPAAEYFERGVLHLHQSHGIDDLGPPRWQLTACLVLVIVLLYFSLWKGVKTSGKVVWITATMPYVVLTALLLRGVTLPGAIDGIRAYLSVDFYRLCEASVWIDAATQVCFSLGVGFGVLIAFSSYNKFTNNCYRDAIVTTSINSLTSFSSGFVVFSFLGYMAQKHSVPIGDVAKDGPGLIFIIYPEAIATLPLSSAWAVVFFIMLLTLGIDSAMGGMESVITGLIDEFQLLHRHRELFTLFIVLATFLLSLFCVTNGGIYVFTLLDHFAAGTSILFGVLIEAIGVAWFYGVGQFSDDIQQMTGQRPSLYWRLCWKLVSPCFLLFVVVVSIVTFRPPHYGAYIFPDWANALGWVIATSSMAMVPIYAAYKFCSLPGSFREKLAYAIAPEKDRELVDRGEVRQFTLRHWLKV
Protocol: At the end of the incubation time, bound and free radioactivity were separated by filtering the assay mixture through Whatman GF/B glass fiber filters in a Brandel cell harvester (Brandel, Unterföhring, Germany).

mouse DAT = target: T2, mouse DAT (Mus musculus, UniProt Q61327); assay: [3H]-WIN 35,428 competition binding, mouse striatal synaptosomes
T2 construct: DAT expressed in mouse striatal nerve terminals; from tissue; host or cells: mouse striatum, crude synaptosomal (P2) fraction
T2 sequence (Q61327 whole entry): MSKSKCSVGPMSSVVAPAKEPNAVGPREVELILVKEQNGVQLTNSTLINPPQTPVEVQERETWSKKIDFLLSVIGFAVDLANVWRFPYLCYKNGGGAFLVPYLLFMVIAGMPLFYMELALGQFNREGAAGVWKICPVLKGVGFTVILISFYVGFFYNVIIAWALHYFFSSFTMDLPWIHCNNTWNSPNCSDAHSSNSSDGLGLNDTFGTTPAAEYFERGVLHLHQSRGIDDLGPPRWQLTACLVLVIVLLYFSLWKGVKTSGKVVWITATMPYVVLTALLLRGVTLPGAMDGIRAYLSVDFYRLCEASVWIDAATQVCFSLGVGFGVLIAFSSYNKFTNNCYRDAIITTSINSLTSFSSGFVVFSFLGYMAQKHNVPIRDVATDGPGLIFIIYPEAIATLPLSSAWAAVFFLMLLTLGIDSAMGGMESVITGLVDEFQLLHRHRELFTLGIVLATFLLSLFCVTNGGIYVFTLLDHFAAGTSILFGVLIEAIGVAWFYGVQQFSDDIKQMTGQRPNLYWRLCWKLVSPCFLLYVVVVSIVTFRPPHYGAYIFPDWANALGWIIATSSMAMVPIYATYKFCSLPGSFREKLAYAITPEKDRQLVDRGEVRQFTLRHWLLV
Protocol: Competition binding experiments were carried out incubating 8 nM [^3H]-WIN 35,428 (specific activity 84 Ci/mmol; Perkin Elmer, Boston, MA, USA) with CHO membranes transfected with human DAT (Perkin Elmer) or mouse striatal synaptosomes with different concentration of the examined compounds for 120 min at 4°C. Non-specific binding was determined in the presence of 1 µM GBR 12783. At the end of the incubation time, bound and free radioactivity were separated by filtering the assay mixture through Whatman GF/B glass fiber filters in a Brandel cell harvester (Brandel, Unterföhring, Germany). Filter bound radioactivity was counted in a Perkin Elmer 2810TR scintillation counter (Perkin Elmer).
(§1) On the day of the experiment, the animal was euthanized, the brain was rapidly removed, and both striata isolated. Thereafter, a crude synaptosomal (P2) fraction was prepared as follows: the striata were suspended in ice-cold buffered sucrose solution (0.32 M, pH 7.4) and homogenized. The homogenate was centrifuged (10 min, 2,100 g, 4°C) to remove nuclei and debris. The supernatant was further centrifuged at 13,500 g for 20 min at 4°C. For [^3H]-WIN 35,428 binding experiments, the P2 pellet was resuspended in 50 mM Tris–HCl, 100 mM NaCl, pH 7.4. For [^3H]-DA release experiments, the P2 pellet was then resuspended in 5 ml of Kreb’s solution (mM: NaCl 118; KCl 4.4; CaCl2 1.2; MgSO4 1.2; KH2PO4 1.2; NaHCO3 25; glucose 10), gassed 20 min with a mixture of 95% O2 plus 5% CO2 containing [^3H]-DA (50 nM; Perkin Elmer, Monza, Italy), disodium EDTA (0.03 mM), and ascorbic acid (0.05 mM; to prevent [^3H]-DA degradation).

male CD-1 mice = assay: Spontaneous locomotor activity (ANY-maze video tracking); assay type: in vivo, mouse; settings: for facilitation of spontaneous locomotion after pretreatment with AM 251 / facilitation of spontaneous locomotion after coadministration of SCH23390 and haloperidol: JWH-018 0.3 mg/kg; for facilitation of spontaneous locomotion after pretreatment with AM 251 / facilitation of spontaneous locomotion after coadministration of SCH23390 and haloperidol / time in the central zone versus peripheral area of the cage / total distance traveled (spontaneous locomotion) / duration of the increase of spontaneous locomotion: AKB48 1 mg/kg; for facilitation of spontaneous locomotion after pretreatment with AM 251: AM 251 1 mg/kg i.p. 20 min before; for facilitation of spontaneous locomotion after coadministration of SCH23390 and haloperidol: SCH23390 0.1 mg/kg i.p. + haloperidol 0.05 mg/kg i.p. 20 min before; for time in the central zone versus peripheral area of the cage / immobility time / total distance traveled (spontaneous locomotion) / duration of the increase of spontaneous locomotion: acute i.p.: JWH-018 0.3 mg/kg; for immobility time: AKB48 1 mg/kg (30 min after administration); for immobility time / total distance traveled (spontaneous locomotion): amphetamine 10 mg/kg; for immobility time / total distance traveled (spontaneous locomotion) / duration of the increase of spontaneous locomotion / time spent in the peripheral arena: cocaine 20 mg/kg; for total distance traveled (spontaneous locomotion): monitored 240 min; for spontaneous locomotion, antagonist by itself: AM 251 1 mg/kg i.p., SCH23390 0.1 mg/kg i.p., haloperidol 0.05 mg/kg i.p.; for time spent in the peripheral arena: acute i.p.: amphetamine 10 mg/kg
Protocol: Drugs were administered by intraperitoneal injection in a volume of 4 μl/g. The used doses of JWH-018 (0.3 and 1 mg/kg i.p.) and AKB48 (0.3 and 1 mg/kg i.p.) were chosen based on previous studies ([6], [7], [9], [10]).
The spontaneous locomotor activity was measured by using the ANY-maze video tracking system (Ugo Basile, application version 4.99 g Beta). The mouse was placed in a square plastic cage (60 cm × 60 cm) located in a sound- and light-attenuated room and motor activity was monitored for 240 min. Four mice were monitored in parallel in each experiment. Parameters measured were distance traveled (meter), total time in the peripheral zone (seconds), total time in the central zone (seconds), and immobility time (seconds; the animal was considered immobile when 95% of his image remained in the same place for at least 2 s). Parameters were analyzed every 15 min for a maximum of 240 min and to avoid mice olfactory cues, cages were carefully cleaned with a dilute (5%) ethanol solution and washed with water between animal trials. All experiments were performed between 9:00 a.m. and 1:00 p.m.

[1] = target: T3, dopamine transporter (DAT) in the mouse striatum (Mus musculus, UniProt Q61327); assay: In vivo DaTSCAN SPECT-CT imaging, striatal [123I]-FP-CIT binding; settings: i.p. 30 min before tracer: cocaine 20 mg/kg, amphetamine 10 mg/kg, JWH-018 1 mg/kg, AKB48 1 mg/kg
T3 construct: from tissue; host or cells: striatum of living CD-1 male mice (in vivo imaging)
T3 sequence (Q61327 whole entry): as above
Protocol: 18 CD-1 male mice were divided into six different groups (three mice per treatment). […] A control group (i.e., naïve untreated mice) was also included in the study. Thirty minutes after drug administration, all mice were submitted to an intravenous injection with a solution of [^123I]-DaTSCAN (15–20 MBq, ≤200 µl). The body temperature of the animals was maintained at 37°C during the imaging sessions and under the cage, between imaging sessions, using a heating lamp. The SPECT–CT whole-body images were acquired at 1 h and 30 min after [^123I]-FP-CIT injection, with the initial tomographic acquisition starting nearly 15 min after the injection. Each SPECT-CT whole-body acquisition consisted of one bed positions (36 mm), 60 min, 128 views over 360 ([35]). The used energy window is 119–219 keV and the images were reconstructed by using the iterative EM-ML algorithm, including the collimator response. CT images have been acquired, using the digital X-ray imaging system integrated into the YAP(S)PET scanner ([36]). Acquisition parameters for X-ray projections were X-ray tube voltage = 35 keV, anode current = 1 mA, exposure = 1 s, 64 views over 360, and magnification factor = 1.2. Subtraction of dark noise contribution and flat field corrections was accomplished to obtain final images. The CT data were reconstructed by using the FDK algorithm. Amide software ([37]) has been used for images’ registration, visualization and analysis. The size of the ROIs was voxels (100 mm^3 volume), corresponding to entire striatum. These ROIs were used as a template. To avoid the variability of the slice selection and to gain statistical power, the entire striatum volume for the analysis was used. The template was positioned manually (without changing the size and form of the ROIs) on the SPECT images with the backing of anatomical information from LONI MAP 2003 MRI mouse atlas ([38], [39]). For analysis of striatal [^123I]-FP-CIT binding, two consecutive horizontal slices (total thickness approximately 4 mm) with the highest striatal binding were selected. The landmarks for positioning were the intra-orbital glands, striatum, and the borders of the brain. Striatal binding ratios are expressed as average activity per unit volume [Bq/mm^3], each value has been calculated as the ratio between the activity inside the ROI and the ROI volume, normalized for injected activity and for mouse brain weight.

[2] = system: DA release in the nucleus accumbens (NAc) shell; assay: In vivo brain microdialysis, NAc shell extracellular DA; design: species or system mouse; settings: for increase of NAc shell extracellular DA levels (maximal/peak): JWH-018 0.3 mg/kg i.p. (long-lasting), AKB48 0.3 mg/kg i.p. (peak); for NAc shell extracellular DA levels: awake freely moving mice, i.p.: amphetamine 10 mg/kg, cocaine 20 mg/kg, JWH-018 0.3 mg/kg, AKB48 0.3 mg/kg
Protocol: Male ICR (CD-1®) mice, 25–30 g (ENVIGO. Harlan Italy; S. Pietro al Natisone, Italy) were anesthetized with Isoflurane (3%; 200 ml/min) and implanted with vertical dialysis probe (1 mm dialyzing portion) prepared with AN69 fibers (Hospal Dasco, Bologna, Italy) in the NAc shell (A + 1.4, L 0.4 from bregma, V-4.8 from dura) according to the mouse brain atlas by Paxinos and Franklin ([40]). On the day following surgery, probes were perfused with Ringer’s solution (147 mM NaCl, 4 mM KCl, 2.2 mM CaCl2) at a constant rate of 1 µl/min. Dialyzate samples (10 µl) were injected into an HPLC equipped with a reverse phase column (C8 3.5 um, Waters, USA) and a coulometric detector (ESA, Coulochem II) to quantify DA. The first electrode of the detector was set at +130 mV (oxidation) and the second at −175 mV (reduction). The composition of the mobile phase was as follows: 50 mM NaH2PO4, 0.1 mM Na2-EDTA, 0.5 mM n-octyl sodium sulfate, 15% (v/v) methanol, pH 5.5. […] At the end of each experiment, animals were sacrificed and their brains removed and stored in formalin (8%) for histological examination to verify the correct placement of the microdialysis probe.

[3] = system: spontaneous [3H]-DA efflux from mouse striatal synaptosomes; assay: Spontaneous [3H]-DA release from striatal synaptosomes; assay type: biochemical; settings: amphetamine 10 µM, cocaine 100 nM, JWH-018 and AKB48 100 nM and 1 µM
Protocol: as §1
After synaptosomal preparation, 0.5 ml aliquots of the suspension were distributed on microporous filters placed at the bottom of a set of parallel superfusion chambers maintained at 37°C and perfused with aerated (95% O2/5% CO2) Kreb’s solution (0.3 ml/min). After 30 min of superfusion to equilibrate the system, 5-min fractions were collected from the 30th to the 75th min (nine samples). […] At the end of the experiment, the radioactivity of the samples and filters was determined by liquid scintillation spectrometry (LS1800 Beckman). In view of the results obtained, in a separate set of experiments, [^3H]-DA uptake was also evaluated.

[4] = system: [3H]-DA uptake in mouse striatal synaptosomes; assay: [3H]-DA uptake in striatal synaptosomes; assay type: biochemical; settings: for effect on [3H]-DA uptake: GBR 12783 20 nM, JWH-018 and AKB48 100 nM and 1 µM; for reduction of [3H]-DA uptake: cocaine 1 µM, amphetamine 1 µM, added 5 min before 50 nM [3H]-DA, 10 min at 37°C
Protocol: as §1
After synaptosomal preparation, the suspension was maintained under a light and continuous oxygenation (95% O2, 5% CO2) for 20 min at 37°C. Thereafter, 0.5 ml aliquots of striatal synaptosomal suspension were prepared. […] After this period, the reaction was stopped by filtration through microporus nylon filters (0.45 µm, 13 mm; Analytical Technology, Brugherio, Italy). The filters were then washed with 1 ml ice-cold Kreb’s solution and the radioactivity accumulated on synaptosomes was extracted by eluting two times with 1 ml of warm NaOH (1 N) and then determined by liquid scintillation spectrometer. Non-specific uptake was measured by following the same procedure at 0°C.

[5] = target: CD-1 murine CB1 receptors; settings: ref [6]; read-out: Ki for CB1 receptors, CD-1 murine preparation; cited from earlier work
[6] = system: dopamine (DA) transmission in the NAc shell; design: method as in PMID 26327678; settings: 0.25 mg/kg i.p., not at 0.125 or 0.5 mg/kg i.p.; not in NAc core and mPFC; ref [9]; cited from earlier work
[7] = system: GABAA-mediated post-synaptic currents in VTA DA neurons; design: method as in PMID 26686391, PMID 25232109, PMID 28373077; settings: rat VTA DA neurons, ex vivo; ref [26], [82], [83]; cited from earlier work

Structure (SMILES): CCCCCn1nc(C(=O)NC23CC4CC(CC(C4)C2)C3)c2ccccc21 [AKB48, N-(1-adamantyl)-1-pentyl-1H-indazole-3-carboxamide]
- Ki (human DAT): 4590 nM
- Ki (mouse DAT): > 10000 nM
- facilitation of spontaneous locomotion after pretreatment with AM 251 (male CD-1 mice): prevented
- facilitation of spontaneous locomotion after coadministration of SCH23390 and haloperidol (male CD-1 mice): prevented
- time in the central zone versus peripheral area of the cage (male CD-1 mice): spent more time in the central zone
- immobility time (male CD-1 mice): increased
- total distance traveled (spontaneous locomotion) (male CD-1 mice): facilitated the spontaneous locomotion only in the first 15 min
- duration of the increase of spontaneous locomotion (male CD-1 mice): 15 min
- reduction of [123I]-FP-CIT binding in the striatum [1]: ~ 42%
- time of peak extracellular DA level after administration ([2]; AKB48 0.3 mg/kg i.p.): 40 min
- increase of NAc shell extracellular DA levels (maximal/peak) [2]: ~ 150 % of baseline values
- NAc shell extracellular DA levels [2]: significantly increased
- spontaneous [3H]-DA efflux from striatal synaptosomes [3]: did not affect
- effect on [3H]-DA uptake [4]: ineffective
- Ki [5]: 5.34 nM

Structure (SMILES): Cc1c(C(=O)NN2CCCCC2)nn(-c2ccc(Cl)cc2Cl)c1-c1ccc(I)cc1 [AM 251, reference compound]
- spontaneous locomotion, antagonist by itself (male CD-1 mice): did not alter the spontaneous locomotion

Structure (SMILES): CC(N)Cc1ccccc1 (stereo not drawn) [Amphetamine, reference compound]
- Ki (mouse DAT): 622 ± 53 nM
- immobility time (male CD-1 mice): reduced the immobility time
- total distance traveled (spontaneous locomotion) (male CD-1 mice): induced long-lasting increases
- time spent in the peripheral arena (male CD-1 mice): increase the time spent in the peripheral arena
- reduction of [123I]-FP-CIT binding in the striatum [1]: ~ 25%
- spontaneous [3H]-DA efflux from striatal synaptosomes [3]: induced a significant increase
- reduction of [3H]-DA uptake [4]: ~40%

Structure (SMILES): COC(=O)[C@H]1[C@@H](OC(=O)c2ccccc2)C[C@@H]2CC[C@H]1N2C [Cocaine, reference compound]
- Ki (mouse DAT): 193 ± 16 nM
- immobility time (male CD-1 mice): reduced the immobility time
- total distance traveled (spontaneous locomotion) (male CD-1 mice): induced long-lasting increases
- duration of the increase of spontaneous locomotion (male CD-1 mice): 90 min
- time spent in the peripheral arena (male CD-1 mice): increase the time spent in the peripheral arena
- reduction of [123I]-FP-CIT binding in the striatum [1]: ~ 40%
- spontaneous [3H]-DA efflux from striatal synaptosomes [3]: induced a significant increase
- reduction of [3H]-DA uptake [4]: ~50%

Structure (SMILES): C(=C\c1ccccc1)/CN1CCN(CCOC(c2ccccc2)c2ccccc2)CC1 [GBR 12783, 1-(2-benzhydryloxyethyl)-4-[(E)-3-phenylprop-2-enyl]piperazine;dihydrochloride, reference compound]
- Ki (human DAT; 8 nM [3H]-WIN 35,428, 120 min at 4°C, mean ± SEM, read-out: hDAT-CHO membranes Ki): 1.93 ± 0.14 nM
- Ki (mouse DAT; 8 nM [3H]-WIN 35,428, 120 min at 4°C, mean ± SEM, read-out: Mouse striatal synaptosomes Ki): 1.72 ± 0.11 nM

Structure (SMILES): CCCCCn1cc(C(=O)c2cccc3ccccc23)c2ccccc21 [JWH-018, 1-pentyl-3-(1-naphthoyl)indole]
- Ki (human DAT): 7180 nM
- Ki (mouse DAT): > 10000 nM
- facilitation of spontaneous locomotion after pretreatment with AM 251 (male CD-1 mice): prevented
- facilitation of spontaneous locomotion after coadministration of SCH23390 and haloperidol (male CD-1 mice): prevented
- time in the central zone versus peripheral area of the cage (male CD-1 mice): spent more time in the central zone
- immobility time (male CD-1 mice): reduced the immobility time
- total distance traveled (spontaneous locomotion) (male CD-1 mice): induced long-lasting increases
- duration of the increase of spontaneous locomotion (male CD-1 mice): 90 min
- reduction of [123I]-FP-CIT binding in the striatum [1]: ~ 39%
- increase of NAc shell extracellular DA levels (maximal/peak) [2]: ~ 150 % of baseline values
- NAc shell extracellular DA levels [2]: significantly increased
- spontaneous [3H]-DA efflux from striatal synaptosomes [3]: did not affect
- effect on [3H]-DA uptake [4]: ineffective
- Ki [5]: 5.82 nM
- dopamine (DA) transmission in the NAc shell [6]: increases
- GABAA-mediated post-synaptic currents [7]: decreases

Structure (SMILES): CN1CCc2cc(Cl)c(O)cc2C(c2ccccc2)C1 (stereo not drawn) [SCH23390, 8-chloro-3-methyl-5-phenyl-1,2,4,5-tetrahydro-3-benzazepin-7-ol, reference compound]
- spontaneous locomotion, antagonist by itself (male CD-1 mice): did not alter the spontaneous locomotion

Structure (SMILES): O=C(CCCN1CCC(O)(c2ccc(Cl)cc2)CC1)c1ccc(F)cc1 [haloperidol, 4-[4-(4-chlorophenyl)-4-hydroxypiperidin-1-yl]-1-(4-fluorophenyl)butan-1-one, reference compound]
- spontaneous locomotion, antagonist by itself (male CD-1 mice): did not alter the spontaneous locomotion
